{"source": "patent US20100292186A1", "about": "“Pharmaceutical Composition for Treatment or Prevention of Liver Cancer” (National University Corporation Nagoya University, priority 2006, published 2010)", "key": {"[1]": {"test_system": "human hepatocellular cancer cell line (Hep-3B, Hep-G2, Huh-7 and Alexander)", "experiment": "MTT assay, growth inhibition of hepatocellular cancer cell lines", "assay_type": "cell-based", "procedure": "Four species of human hepatocellular cancer cell line (Hep-3B. Hep-G2, Huh-7 and Alexander) were cultured under humidified atmosphere of 95% air and 5% carbon dioxide, in a Dulbecco Modified Eagle culture medium (DMEM: SIGMA CHEMICAL Co., St. Louis USA) supplemented with 10% fetal bovine serum (FBS), 100 U/ml penicillin G sulphate and 100 μg/ml streptomycin sulphate.\nFor lecithin (other name: phosphatidylcholine (hereinafter, referred to as simply “PC”), soybean lecithin with a purity of approximately 96.5% was used, and menatetrenone and Kaytwo N (Kaytwo N: registered trade mark; manufactured by Eisai Co. Ltd.) were provided by Eisai Co. Ltd. For the study, cells (Hep-G2: 1×10^4; others: 1×10^3) in a 96-well microtiter plate were cultured one day prior to beginning the experiments. In the MTT assay method, cells in 96-well microtiter were cultured several days (2 to 4 days) in the presence of PC (1×10^−8 to 1×10^−4M) and menatetrenone (1×10^−7 to 1×10^−4 M) or Kaytwo N (registered trade mark; manufactured by Eisai Co. Ltd.) (regarding menatetrenone: […] to 1×10^−4M). […] The survival rate was analyzed by the MTT assay method using the Tetra Color One Kit. […]\nSignificant differences were evaluated by the Mann-Whitney U test according to StatView 5.0 (Abacus Concepts, Berkley, Calif.). […]"}, "hepatocellular cancer": {"test_system": "hepatocellular cancer", "conditions": "administration after treatment of hepatocellular cancer; cited from earlier work"}, "[2]": {"conditions": "cited from earlier work"}, "[3]": {"test_system": "human hepatocellular cancer cell lines (Hep-3B, Hep-G2, Huh-7 and the like)", "conditions": "literature; cited from earlier work"}}}
{"compound": "CC(C)=CCC/C(C)=C/CC/C(C)=C/CC/C(C)=C/CC1=C(C)C(=O)c2ccccc2C1=O", "note": "[menatetrenone, 2-methyl-3-tetraprenyl-1,4-naphthoquinone]", "values": [{"measurement": "survival rate", "setting": "[1]; MTT assay, PC 1×10^−8 to 1×10^−4 M, menatetrenone 1×10^−7 to 1×10^−4 M, culture 2 to 4 days, FIGS. 1A-1C", "result": "survival rate decreased in the presence menatetrenone depending on the quantity added"}, {"measurement": "multiplication of human hepatocellular cancer cell lines", "setting": "[1]; each substance alone", "result": "demonstrated an inhibitory effect"}, {"measurement": "occurrence of PVI (portal venous invasion)", "setting": "hepatocellular cancer", "result": "could be suppressed"}, {"measurement": "prognosis / recurrence of hepatocellular cancer", "setting": "hepatocellular cancer", "result": "prognosis could be improved by suppressing the recurrence of hepatocellular cancer"}, {"measurement": "solubility in water", "setting": "[2]", "result": "almost insoluble in water"}, {"measurement": "growth of human hepatocellular cancer cell lines", "setting": "[3]", "result": "inhibitory effect"}]}
